The values that follow come from patent US20220142934A1, “COMBINATION THERAPEUTICS AND METHODS FOR THE TREATMENT OF NEURODEGENERATIVE AND OTHER DISEASES” (Aphios Corporation, priority 2020, published 2022).

The subject of assay [1] is SH-SY5Y neuroblastoma cells. The assay can be described thus: sAPPα formation/release in SH-SY5Y cells (6E10 western blot, densitometry). The conditions noted are these: Bryostatin-1 alone. It is filed as cell-based. As to the method: Cells were treated with RA, Bryostatin-1 (10^−9M)+RA, Bryostatin-1 (10^−10M) RA+Bryostatin-1 (10^−10M) for 3 h. Representative western blots show sAPPα recovered from culture medium.

A further assay deals with ADAM10. The assay is described as follows: ADAM10 (alpha-secretase) expression in SH-SY5Y cells. It is filed as cell-based. The conditions noted are these: each agent alone or in combination. The text has this:
Therefore, Bryostatin-1 may increase a-secretase processing through 2 independent mechanisms: (i) activation of PKCs which stimulate secretase; and (ii) increased expression of a-secretase.

The subject of assay [2] is Mouse strain B6C3-Tg carrying mutant Swedish Amyloid precursor protein (sweAPP) and PSI (presenilin-l) genes. The assay is described as follows: Water maze studies in Alzheimer's disease mouse model. It is filed as in vivo. The text has this:
Mouse strain B6C3-Tg carrying mutant Swedish Amyloid precursor protein (sweAPP) and PSI (presenilin-l) genes associated with early onset Alzheimer's disease were subjected to water maze tests at 5-6 months of age.

The next assay has as its system prostate cancer cells. The settings on record: by modulating PKC delta translocation and preventing TNF-alpha release; cited from earlier work.

SMILES strings stand for the structures.

As to `CCC/C=C/C=C/C(=O)O[C@H]1/C(=C/C(=O)OC)C[C@H]2C[C@H]([C@@H](C)O)OC(=O)C[C@H](O)C[C@@H]3C[C@H](OC(C)=O)C(C)(C)[C@](O)(C[C@@H]4C/C(=C/C(=O)OC)C[C@H](/C=C/C(C)(C)[C@]1(O)O2)O4)O3` [Bryostatin-1], the sAPPα formation result in assay [1] (10^−9M, SH-SY5Y cells) is on record as “increased”. For the same compound, the “sAPPα recovered from culture medium” value in assay [1] (10^−10M, 3 h, SH-SY5Y cells, vs control) is “significantly increased”. The activity of alpha-secretase entry in assay [1] (SH-SY5Y neuroblastoma cells) is given as “potently stimulate”. In addition, the “expression of ADAM10 (the major form of alpha-secretase)” value in the assay on ADAM10 is “significantly increase”. For the same compound, the “protection against Alzheimer's disease mediated memory loss (water maze)” value in assay [2] (5 micrograms/mouse on alternative days orally in an oil formulation, mice 5-6 months of age, vs control animals) is given as “significant protection”. The “memory and cognition in AD model” value in assay [2] (mouse, in vivo) is “enhance memory and cognition”. Moreover, in the assay on prostate cancer cells, the phorbol ester-induced apoptosis result was “inhibits”.
